Format in all cases: in vivo, human
Assay [1] concerns patient with tinnitus and vertigo attacks. In words: Tinnitus pattern in patient case example 3. Particulars: Case 3; 2250 mg troxerutin orally daily; 4th week of treatment. On the procedure: (§1) patient with tinnitus and vertigo attacks for 4 months.
(§2) A 4-week therapy with 2250 mg of troxerutin orally daily followed. Under this, hearing improved in the 1st week by 10 dB in the low frequency range and by 5 dB in the high frequency range. There was no change in the frequency of vertigo attacks (1 to 4 times within 2 days).

The subject of assay [2] is patient with hearing impairment. In words: Pure-tone threshold audiometry in patient case examples under oral therapy. Conditions: 2250 mg troxerutin orally daily.
Text: as §1
Moderate hearing loss existed which was confirmed by pure-tone threshold audiometry to be a loss of hearing especially in the low and high frequency ranges. The underlying disease present was insulin-dependent diabetes mellitus. The findings existed for 4 months with the tendency for progressive worsening. […]

The test system of assay [3] is patient with tinnitus and vertigo attacks. In words: Frequency of vertigo attacks in patient case example 3. Particulars: Case 3; 2250 mg troxerutin orally daily, 4-week therapy. On the procedure:
as §1, §2

Turning to “3′,4′,7-tris-O-(β-hydroxyethyl)rutin [troxerutin]”, the tinnitus pattern entry in assay [1] is recorded as “intermittent with relatively frequent absences which lasted for hours”. Besides, the “improvement in the audiogram, high-frequency range, right ear” value in assay [2] (Case 1, 4-week therapy) worked out at 10 dB. Moreover, the “improvement of audiogram, high frequency range” value in assay [2] (Case 2, after 1 week) is on record as “minor improvement”. For the same substance, the “improvement of audiogram, low frequency range” value in assay [2] (Case 2, after 1 week) came out at 10 dB. Further, the “improvement of hearing, low frequency range” value in assay [2] (Case 3, moderate hearing loss, 1st week) is given as 10 dB; in assay [2] (Case 4, week 3), 10 dB. Besides, the “improvement of hearing, high frequency range” value in assay [2] (Case 3, 1st week) is reported as 5 dB; in assay [2] (Case 4, week 3), “marginally”. In addition, the “frequency of vertigo attacks” value in assay [3] is reported as “no change”.

The record behind these values is patent US20040235965A1, “Utilization of rutins and aescins in the treatment of circulatory disturbances of the ear” (priority 2001, published 2004).
